Experimental data reported in US10428080B2, “TBK/IKK inhibitor compounds and uses thereof” (Merck Patent GmbH, priority 2015, dated 2019).
pIC50: −log10 of the molar value. Where a name gives a salt, the structure may show the parent alone. Read-outs that look alike come from different tables or passages of the source.

Tests used:
[1] = test system: phosphorylation of the IRF-3 protein in MDA-MB-468 cells; test: pIRF3 immunocytochemistry cell based assay; conditions: MDA-MB-468 cells, Poly(I:C) stimulation, read-out: pIRF3 IC50
Method: The purpose of the pIRF3 immunocytochemistry cell based assay was to identify small molecules which modulates TBK/IKKe kinase activity through on target substrate phosphorylation of the IRF-3 protein. On the first day of the experiment, MDA-MB-468 cells were plated in 384 well, black, clear-bottom, Poly D lysine coated plates at a density of 5000 cells/well in 45 ul of complete DMEM and allowed to adhere overnight. On the second day compounds were added to cells at a starting concentration of 10 uM with a serial dilution of 3-fold for a total of 10 points. The cells were incubated for 1 hr at 37° C. Cells were then stimulated with Poly(I:C) at a final concentration of 10 ug/ml, and were incubated for 2 hr at 37° C. Following the incubation, media was removed from the wells and the cells were fixed with 4% PFA for 15 min at RT. Cells were washed at least 3 times with PBS, and then permeabilized with ice-cold methanol for 10 min at RT. The washing step was repeated and the cells were then blocked using 10% goat serum/1% BSA, made up in PBS and allowed to incubate at RT for 1 hr. The cells were washed again and then treated with an anti-pIRF3 antibody at 4° C. overnight (1:250 dilution of Abcam ab76493 in PBS containing 1% BSA). On the third day the primary antibody was washed off and pIRF3 was detected by adding the secondary antibody conjugated to AlexaFluor488 (1:200 dilution of secondary antibody in PBS containing 1% BSA) for 1 hr at RT. Cells were washed and then counterstained with PI/RNase staining buffer for 15 min at RT and read on the Acumen Explorer laser scanning cytometer. The percentage of phosphorylation of the IRF-3 protein was calculated using the following algorithm, a modified version of the mean half width intensity (pIRF3 staining)/(PI staining or # of cells)×100%). IC50 curves were generated using the Genedata software.

TBK1 = target: T1, TBK1 (Homo sapiens, UniProt Q9UHD2); test: TBK Biochemical Assay; conditions: read-out: TBK1 IC50
T1 sequence (Q9UHD2 1-729): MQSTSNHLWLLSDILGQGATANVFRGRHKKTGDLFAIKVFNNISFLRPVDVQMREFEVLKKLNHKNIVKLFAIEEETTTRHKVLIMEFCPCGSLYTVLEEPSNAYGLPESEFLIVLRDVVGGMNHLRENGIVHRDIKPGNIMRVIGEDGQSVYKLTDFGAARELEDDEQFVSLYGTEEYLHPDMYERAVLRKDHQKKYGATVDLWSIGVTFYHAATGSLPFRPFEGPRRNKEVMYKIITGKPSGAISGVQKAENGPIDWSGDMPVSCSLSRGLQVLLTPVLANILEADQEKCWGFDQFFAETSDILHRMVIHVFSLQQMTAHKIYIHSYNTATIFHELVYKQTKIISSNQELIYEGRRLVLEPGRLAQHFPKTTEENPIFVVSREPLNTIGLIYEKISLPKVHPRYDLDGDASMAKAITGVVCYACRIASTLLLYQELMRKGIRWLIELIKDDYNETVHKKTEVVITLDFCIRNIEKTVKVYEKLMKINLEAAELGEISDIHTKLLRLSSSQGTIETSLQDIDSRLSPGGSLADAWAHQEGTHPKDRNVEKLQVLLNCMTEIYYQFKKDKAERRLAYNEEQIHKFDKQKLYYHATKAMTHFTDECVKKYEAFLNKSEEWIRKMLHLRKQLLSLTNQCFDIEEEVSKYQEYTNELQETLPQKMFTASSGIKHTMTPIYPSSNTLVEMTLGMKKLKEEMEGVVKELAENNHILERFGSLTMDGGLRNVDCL
How it was run: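 Caliper LabChip mobility-shift readout of substrate and product after 90 min of TBK1 reaction at 25° C and stop-buffer addition. Compounds tested in 1:4 serial dilution over 10 points from 30 uM final at 1% DMSO; staurosporine 10 uM final defines full inhibition.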

IKKε = target: T2, IKKε (Homo sapiens, UniProt Q14164); test: IKKe Biochemical Assay; conditions: read-out: IKKε IC50
T2 sequence (Q14164 1-716): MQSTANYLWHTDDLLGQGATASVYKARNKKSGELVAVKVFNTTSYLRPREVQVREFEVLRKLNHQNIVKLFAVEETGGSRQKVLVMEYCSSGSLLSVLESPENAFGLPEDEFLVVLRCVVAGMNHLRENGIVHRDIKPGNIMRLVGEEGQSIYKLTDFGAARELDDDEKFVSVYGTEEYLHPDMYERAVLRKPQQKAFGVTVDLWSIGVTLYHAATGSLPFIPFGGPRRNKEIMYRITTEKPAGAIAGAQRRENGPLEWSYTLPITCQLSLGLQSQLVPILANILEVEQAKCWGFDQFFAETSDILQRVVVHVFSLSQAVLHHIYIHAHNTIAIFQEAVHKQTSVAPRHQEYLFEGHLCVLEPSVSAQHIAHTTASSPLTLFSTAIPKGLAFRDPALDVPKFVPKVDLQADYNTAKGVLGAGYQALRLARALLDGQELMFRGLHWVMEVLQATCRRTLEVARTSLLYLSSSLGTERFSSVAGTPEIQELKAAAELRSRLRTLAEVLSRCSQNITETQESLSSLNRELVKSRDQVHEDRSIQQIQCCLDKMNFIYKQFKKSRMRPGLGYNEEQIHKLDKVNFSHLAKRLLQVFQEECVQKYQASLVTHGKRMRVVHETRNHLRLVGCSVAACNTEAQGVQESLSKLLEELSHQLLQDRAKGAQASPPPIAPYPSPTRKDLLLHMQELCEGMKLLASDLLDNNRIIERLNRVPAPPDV
How it was run: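 Activity was measured as mobility-shift separation of phosphorylated from unphosphorylated substrate on a LabChip EZ Reader. Compound was titrated from 30 uM final in 10 points, 1:4 steps, with 1% DMSO, and enzyme plus substrate reacted 90 min at 25° C before stop buffer. Control wells held 10 uM staurosporine.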

| Structure (SMILES) | pIC50 ([1]; Homo sapiens) | pIC50 (TBK1) | pIC50 (IKKε) | pIC50 [1] |
| --- | --- | --- | --- | --- |
| COc1cc(C(=O)N(C)C)ccc1-c1cc2nccc(-c3ccc(OC4CCOC[C@@H]4F)c(C#N)c3)c2o1 (mixture of isomers) [Compound 42, 4-{7-[3-Cyano-4-((S)-3-fluoro-tetrahydro-pyran-4-yloxy)-phenyl]-furo[3,2-b]pyridin-2-yl}-3-methoxy-N,N-dimethyl-benzamide] | > 7.00 | > 7.00 | > 7.00 |  |
| N#Cc1cc(-c2ccnc3cc(-c4ccc(C(=O)NC5CNCCC5F)cc4)oc23)ccc1OC1CCOCC1 (racemic) [Compound 131, 4-{7-[3-Cyano-4-(tetrahydro-pyran-4-yloxy)-phenyl]-furo[3,2-b]pyridin-2-yl}-N-(4-fluoro-piperidin-3-yl)-benzamide] | 6.00 to 7.00 | > 7.00 | > 7.00 |  |
| COc1cc(C(=O)N[C@H]2[C@@H]3C[C@H]2CN(C)C3)ccc1-c1cc2nccc(-c3ccc(OC4CCOCC4)c(C#N)c3)c2o1 (single isomer, unassigned) [Compound 365] | 6.00 to 7.00 | > 7.00 | > 7.00 |  |
| COc1cc(C(=O)N[C@H]2[C@@H]3C[C@H]2CN(C)C3)ccc1-c1cc2nccc(-c3ccc(OC4CCOCC4)c(C#N)c3)c2o1 (single isomer, unassigned) [Compound 366] |  | > 7.00 | > 7.00 | 6.00 to 7.00 |
| COc1cc(C(=O)N[C@H]2C[C@H](CO)N(C)C2)ccc1-c1cc2nccc(-c3ccc(OC4CCOCC4)c(C#N)c3)c2o1 (stereo in doubt) [Compound 350, 4-[7-[3-cyano-4-(oxan-4-yloxy)phenyl]furo[3,2-b]pyridin-2-yl]-N-[(3S,5R)-5-(hydroxymethyl)-1-methylpyrrolidin-3-yl]-3-methoxybenzamide] | 6.00 to 7.00 | > 7.00 | > 7.00 |  |
| COc1cc(C(=O)N2CCCCC2)ncc1-c1cc2nccc(-c3ccc(N4CCC(F)C4)c(C#N)c3)c2o1 (stereo in doubt) [Compound 384, 2-((S)-3-Fluoro-pyrrolidin-1-yl)-5-{2-[4-methoxy-6-(piperidine-1-carbonyl)-pyridin-3-yl]-furo[3,2-b]pyridin-7-yl}-benzonitrile] | > 7.00 | > 7.00 | > 7.00 |  |
| COc1cc(C(=O)N2CCCCC2)ncc1-c1cc2nccc(-c3ccc(N4CC[C@@H](F)C4)c(C#N)c3)c2o1 (stereo in doubt) [Compound 385] |  | > 7.00 | > 7.00 | > 7.00 |
| COc1cc(C(=O)N(C)C)ncc1-c1cc2nccc(-c3ccc(N4CCC(F)C4)c(C#N)c3)c2o1 (stereo in doubt) [Compound 389, 5-{7-[3-Cyano-4-((S)-3-fluoro-pyrrolidin-1-yl)-phenyl]-furo[3,2-b]pyridin-2-yl}-4-methoxy-pyridine-2-carboxylic acid dimethylamide] | 6.00 to 7.00 | > 7.00 | > 7.00 |  |
| COc1cc(C(=O)N(C)C)ncc1-c1cc2nccc(-c3ccc(N4CCC(F)C4)c(C#N)c3)c2o1 (stereo in doubt) [Compound 390, 5-{7-[3-Cyano-4-((R)-3-fluoro-pyrrolidin-1-yl)-phenyl]-fluro[3,2-b]pyridin-2-yl}-4-methoxy-pyridine-2-carboxylic acid dimethylamide] | 6.00 to 7.00 | > 7.00 | > 7.00 |  |
| COc1cc(C(=O)NC2C3COCC32)cnc1-c1cc2nccc(-c3ccc(N4CC[C@H](F)C4)c(C#N)c3)c2o1 (stereo in doubt) [Compound 465, 6-[7-[3-cyano-4-(3-fluoropyrrolidin-1-yl)phenyl]furo[3,2-b]pyridin-2-yl]-5-methoxy-N-[3-oxabicyclo[3.1.0]hexan-6-yl]pyridine-3-carboxamide] | 6.00 to 7.00 | > 7.00 | > 7.00 |  |
| COc1cc(C(=O)N2C[C@H]3C[C@@H]2CN3C)ccc1-c1cc2nccc(-c3ccc(OC4CCOCC4)c(C#N)c3)c2o1 (stereo in doubt) [Compound 507] | > 7.00 | > 7.00 | > 7.00 |  |
| COc1cc(C(=O)N2CC3CC2CO3)ccc1-c1cc2nccc(-c3ccc(OC4CCOCC4)c(C#N)c3)c2o1 (stereo not shown) [Compound 1, 5-{2-[2-Methoxy-4-(2-oxa-5-aza-bicyclo[2.2.1]heptane-5-carbonyl)-phenyl]-furo[3,2-b]pyridin-7-yl}-2-(tetrahydro-pyran-4-yloxy)-benzonitrile] | > 7.00 | > 7.00 | > 7.00 |  |
| COc1cc(C(=O)N2CCC3(CCO3)CC2)ccc1-c1cc2nccc(-c3ccc(OC4CCOCC4)c(C#N)c3)c2o1 [Compound 3, 5-{2-[2-Methoxy-4-(1-oxa-7-aza-spiro[3.5]nonane-7-carbonyl)-phenyl]-furo[3,2-b]pyridin-7-yl}-2-(tetrahydro-pyran-4-yloxy)-benzonitrile] | 6.00 to 7.00 | > 7.00 | > 7.00 |  |
| COc1cc(C(=O)N(C)C)ccc1-c1cc2nccc(-c3ccc(C(C)(C)N4CCOCC4)c(C#N)c3)c2o1 [Compound 291, 4-(7-[3-cyano-4-[2-(morpholin-4-yl)propan-2-yl]phenyl]furo[3,2-b]pyridin-2-yl)-3-methoxy-N,N-dimethylbenzamide hydrochloride] | < 5.30 |  |  |  |
| COc1cc(C(=O)N(C)C)cnc1-c1cc2ncc(OC)c(-c3ccc(OC4CCOCC4)c(C#N)c3)c2o1 [Compound 339, 6-[7-[3-cyano-4-(oxan-4-yloxy)phenyl]-6-methoxyfuro[3,2-b]pyridin-2-yl]-5-methoxy-N,N-dimethylpyridine-3-carboxamide] | > 7.00 | 6.00 to 7.00 |  |  |
| COc1cc(C(=O)NC2CC3CCC2CC3)ccc1-c1cc2nccc(-c3ccc(OC4CCOCC4)c(C#N)c3)c2o1 (stereo not shown) [Compound 495] |  | 6.00 to 7.00 | > 7.00 |  |
| COc1cc(C(=O)NC2CC3CCC2C3)ccc1-c1cc2nccc(-c3ccc(OC4CCOCC4)c(C#N)c3)c2o1 (stereo not shown) [Compound 496] |  | > 7.00 | > 7.00 |  |
